Results taken from paper PMC9230870, “Investigation of the Uptake and Transport of Two Novel Camptothecin Derivatives in Caco-2 Cell Monolayers” (Molecules, 2022).
Like-named read-outs stand apart in the source and are kept apart here.

Assays:
[1] = system: Caco-2 cell monolayers; test: Transport across Caco-2 cell monolayers; assay type: in vitro ADME; settings: for Papp AP-BL / efflux ratio (ER) = Papp BL-AP/Papp AP-BL: 1.0 μM; for Papp AP-BL: AP FaSSIF pH 6.5, BL HBSS pH 7.4; for efflux ratio (ER) = Papp BL-AP/Papp AP-BL: Caco-2 monolayer
Protocol: When Caco-2 cells reached 80–90% confluence in T-25 flasks, the cells were digested, centrifuged, and resuspended. After seeding at a density of 2 × 10^5 cells/well onto the apical of the Transwell® plate, 0.5 mL of 10% DMEM was added into the apical (AP) chamber and 1.5 mL of 10% DMEM was added into the basolateral (BL) chamber. The buffer was refreshed every two days, and after one week it was refreshed daily and incubated until 21 days.
The integrity of the Caco-2 cell monolayer was evaluated by measuring the transepithelial electrical resistance (TEER) and the permeability of Lucifer yellow (LY). The TEER was measured using Millicell® ERS-2 voltameter (Bedford, USA). The Caco-2 cell model was used for the transport of FL77-28 and FL77-29 when the TEER values exceeded 300 Ω/cm^2. The TEER value was also measured at the end of the transport experiment. In addition, the permeability of LY, a paracellular transport marker, was also measured for the tightness of epithelial cells. […] Then, the fluorescence of samples was measured at excitation/emission wavelengths of 492/520 nm using the ELISA Plate.
Before the transport studies, the Caco-2 cell monolayers were washed twice with warm HBSS containing 15 mM glucose, 10 mM HEPES, and 1% BSA (pH 7.4) and pre-incubated for 30 min at 37 °C [26]. Next, HBSS was discarded and replaced with 0.5/1.0 µM of FL77-28 and FL77-29 dissolved in a different buffer on one side of the cell layer, 0.5 mL for the AP side and 1.5 mL for the BL side. The buffer at the AP was FaSSIF (pH 6.5) and the buffer at the BL was HBSS. Then, the monolayers were incubated at 37 °C. A sample aliquot of 0.5 mL (AP-BL) or 0.25 mL (BL-AP) was taken from the receiving compartment at different time points (120, 150, 180, 210, and 240 min) and then replaced with an equal volume of fresh pre-warmed buffer. The concentrations of FL77-28 and FL77-29 in the sample were determined by HPLC.
(§1) Using the Shimadzu HPLC system (Shimadzu, Kyoto, Japan), the samples taken from the uptake experiment and the transport studies were eluted on a C18 reverse-phase column (250 mm × 4.6 mm, 5 μm, Elite, Dalian). The column was maintained at 40 °C and the absorbance detector wavelength was 365 nm. The mobile phase used for FL118, FL77-28, and FL77-29 consisted of acetonitrile: 0.1% formic acid (40:60, v/v), (60:40, v/v), and (65:35, v/v). The flow rate was 1.0 mL/min, and the injection volume was 20 μL. The retention times of FL118, FL77-28, and FL77-29 were 6.109 min (Figure 1A), 8.456 min (Figure 1B), and 6.351 min (Figure 1C), respectively. Calibration curves were constructed over a concentration range of 0.03–1.00 μM. […] The concentration of FL118, FL77-28, and FL77-29 was determined according to the typical equations.
The concentration of each sample was measured by HPLC. The Papp of FL77-28 and FL77-29 was calculated according to the following equation:Papp (cm/s) = V/(C0·A)·(ΔQ/Δt)(1) where V (cm^3) is the volume of the receiver compartment, A is the monolayer surface area of the Transwell insert (1.12 cm^2), C0 is the initial drug concentration in the donor compartment, and (ΔQ/Δt) is the transport rate.
The efflux ratio (ER) was calculated using the following equation:ER = Papp BL-AP/Papp AP-BL(2)

[2] = system: Hep G2; test: MTT cytotoxicity assay, Hep G2; assay type: cell-based; settings: 72 h, mean ± SD (n = 3)
Protocol: (§2) HCT 116, HeLa, A549, Hep G2, and Caco-2 cell lines were obtained from the China Center for Type Culture Collection, CCTCC (Wuhan, China). They were cultured in DMEM, including 10% FBS, 1% penicillin (l00 μg/mL), and 1% streptomycin (l00 μg/mL), in a constant temperature incubator at 37 °C with 5% CO2.
(§3) The cytotoxicity of FL118, FL77-28, and FL77-29 against HCT116, HeLa, A549 HepG2, and Caco-2 cell lines were measured using MTT assays. The cells were plated into 96-well plates at a density of 2 × 10^4 cells/mL and cultured for 24 h. Next, the cells were treated with 0.0125–0.500 μM of FL118, FL77-28, and FL77-29 for 4 h or 72 h. After incubation with 20 µL of 5 mg/mL MTT solution for 4 h, the supernatant was gently discarded and 150 µL of DMSO was added to dissolve the formazan crystals. Finally, the absorbance was measured at 570 nm and the background was subtracted at 630 nm using an ELISA Plate Reader.

[3] = molecular target: T1, BCRP (Homo sapiens, UniProt Q9UNQ0); test: Cellular uptake in Caco-2 cells with BCRP inhibitor Gefitinib; assay type: in vitro ADME; settings: 1 µM Gefitinib pre-incubation 30 min, 0.2-1.0 μM, 37 °C, 4 h
T1 construct: endogenous in cells; host or cells: Caco-2
T1 sequence (Q9UNQ0 1-655): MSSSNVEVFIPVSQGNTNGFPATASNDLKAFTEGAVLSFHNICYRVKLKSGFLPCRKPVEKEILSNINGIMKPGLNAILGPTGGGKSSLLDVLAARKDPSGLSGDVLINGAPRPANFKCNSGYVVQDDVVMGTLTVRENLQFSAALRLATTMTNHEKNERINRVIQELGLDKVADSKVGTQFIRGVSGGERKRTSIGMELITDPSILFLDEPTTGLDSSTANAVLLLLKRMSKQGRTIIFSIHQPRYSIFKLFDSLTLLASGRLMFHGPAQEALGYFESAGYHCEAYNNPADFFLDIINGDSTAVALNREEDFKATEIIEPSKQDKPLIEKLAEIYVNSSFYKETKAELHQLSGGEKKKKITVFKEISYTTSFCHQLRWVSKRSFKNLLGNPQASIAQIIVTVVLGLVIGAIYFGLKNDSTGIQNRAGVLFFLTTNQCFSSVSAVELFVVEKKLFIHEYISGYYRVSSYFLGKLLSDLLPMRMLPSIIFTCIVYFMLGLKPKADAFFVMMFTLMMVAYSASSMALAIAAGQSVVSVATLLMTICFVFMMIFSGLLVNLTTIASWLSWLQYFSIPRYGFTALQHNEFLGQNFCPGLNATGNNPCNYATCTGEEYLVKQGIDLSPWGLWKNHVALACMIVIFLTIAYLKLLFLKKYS
Protocol: (§4) Caco-2 cells were plated in a 6-well plate at a density of 2 × 10^5 cells/well and cultured at 37 °C. After reaching 80% confluence, Caco-2 cells could be used in the uptake experiments. Next, the cells were washed twice with HBSS and pre-incubated with HBSS or 1 µM Verapamil or Gefitinib for 30 min. After pre-incubation, the drug-free HBSS was replaced by FaSSIF containing FL118, FL77-28, or FL77-29 (0.2, 0.4, 0.6, 0.8, and 1.0 μM), and then incubated for 4 h at 37 °C or 4 °C, respectively. Next, the cells were collected and lysed by freezing and thawing three times. Then, the cells were sonicated and centrifuged at 10,000 rpm for 10 min. Finally, the supernatants were used to measure concentrations of compounds and proteins by HPLC and Bradford methods.
as §1

[4] = molecular target: T2, P-gp (Homo sapiens, UniProt P08183); test: Cellular uptake in Caco-2 cells with P-gp inhibitor Verapamil; assay type: in vitro ADME; parameters: endogenous in cells; host or cells: Caco-2; settings: 1 µM Verapamil pre-incubation 30 min, 0.2-1.0 μM, 37 °C, 4 h
T2 sequence (P08183 whole entry): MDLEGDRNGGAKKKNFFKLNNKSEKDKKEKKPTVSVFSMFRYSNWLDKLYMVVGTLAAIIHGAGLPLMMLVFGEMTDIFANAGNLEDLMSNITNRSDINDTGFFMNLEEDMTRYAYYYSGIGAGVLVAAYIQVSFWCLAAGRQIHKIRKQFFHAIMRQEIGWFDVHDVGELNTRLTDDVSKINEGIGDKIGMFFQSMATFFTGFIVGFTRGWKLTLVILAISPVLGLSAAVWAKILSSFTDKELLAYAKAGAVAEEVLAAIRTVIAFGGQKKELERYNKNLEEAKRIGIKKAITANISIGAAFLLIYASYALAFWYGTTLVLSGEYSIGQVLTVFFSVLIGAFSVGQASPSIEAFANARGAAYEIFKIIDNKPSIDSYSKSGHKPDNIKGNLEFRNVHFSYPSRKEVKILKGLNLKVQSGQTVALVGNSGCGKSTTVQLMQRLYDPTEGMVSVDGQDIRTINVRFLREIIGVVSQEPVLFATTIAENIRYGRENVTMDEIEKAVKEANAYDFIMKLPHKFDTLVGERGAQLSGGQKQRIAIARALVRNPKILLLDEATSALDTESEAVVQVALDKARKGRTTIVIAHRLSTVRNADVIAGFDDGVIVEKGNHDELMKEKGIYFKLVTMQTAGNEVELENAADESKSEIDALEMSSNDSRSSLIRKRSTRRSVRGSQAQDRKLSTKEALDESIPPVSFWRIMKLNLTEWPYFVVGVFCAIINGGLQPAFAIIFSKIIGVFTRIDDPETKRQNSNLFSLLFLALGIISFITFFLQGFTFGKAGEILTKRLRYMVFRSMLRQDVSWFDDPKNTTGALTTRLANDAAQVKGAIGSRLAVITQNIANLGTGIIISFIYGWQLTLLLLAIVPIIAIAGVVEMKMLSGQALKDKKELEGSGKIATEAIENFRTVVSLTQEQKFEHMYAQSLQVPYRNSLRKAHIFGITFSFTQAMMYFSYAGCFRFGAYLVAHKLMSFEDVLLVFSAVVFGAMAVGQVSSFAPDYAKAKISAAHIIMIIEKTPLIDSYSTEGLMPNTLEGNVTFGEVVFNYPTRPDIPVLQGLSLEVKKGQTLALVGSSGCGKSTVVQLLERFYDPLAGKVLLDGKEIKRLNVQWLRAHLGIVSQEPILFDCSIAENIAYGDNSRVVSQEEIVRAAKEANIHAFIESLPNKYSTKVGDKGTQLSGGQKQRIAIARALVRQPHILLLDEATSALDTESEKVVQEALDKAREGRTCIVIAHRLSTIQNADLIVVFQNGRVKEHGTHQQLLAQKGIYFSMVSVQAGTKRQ
Protocol: as §4, §1

[5] = system: Caco-2 cells; test: Cellular uptake in Caco-2 cells, effect of temperature; assay type: in vitro ADME; settings: 4 °C versus 37 °C, 4 h, 0.2-1.0 μM
Protocol: as §4, §1

[6] = system: Caco-2 cells
Protocol: as §2
The cytotoxicity of FL118, FL77-28, and FL77-29 against HCT116, HeLa, A549 HepG2, and Caco-2 cell lines were measured using MTT assays. The cells were plated into 96-well plates at a density of 2 × 10^4 cells/mL and cultured for 24 h. […] After incubation with 20 µL of 5 mg/mL MTT solution for 4 h, the supernatant was gently discarded and 150 µL of DMSO was added to dissolve the formazan crystals. Finally, the absorbance was measured at 570 nm and the background was subtracted at 630 nm using an ELISA Plate Reader.

[7] = system: HCT 116; test: MTT cytotoxicity assay, HCT 116; assay type: cell-based; settings: HCT 116, MTT, 72 h, mean ± SD (n = 3)
Protocol: as §2, §3

[8] = system: A549; test: MTT cytotoxicity assay, A549; assay type: cell-based; settings: 72 h, mean ± SD (n = 3)
Protocol: as §2, §3

[9] = system: HeLa; test: MTT cytotoxicity assay, HeLa; assay type: cell-based; settings: 72 h, mean ± SD (n = 3)
Protocol: as §2, §3

[10] = molecular target: T2, P-gp; settings: cited from earlier work
[11] = molecular target: T1, BCRP; settings: cited from earlier work
[12] = Caco-2 cells, 0.2 to 1.0 μM, 4 h, MTT

| Molecule | Papp AP-BL ([1]; 37 °C) | efflux ratio (ER) = Papp BL-AP/Papp AP-BL [1] | IC50 [2] [nM] | substrate of BCRP (uptake with Gefitinib) [3] | substrate of P-gp (uptake with Verapamil) [4] | effect of temperature on cellular uptake [5] | cell viability [6, 12] | IC50 [7] [nM] | IC50 [8] [nM] | IC50 [9] [nM] | substrate of P-gp [10] | substrate of BCRP [11] | cell viability [6] | Papp of LY (monolayer integrity marker) ([1]; 20 µg/mL, 2 h, 37 °C) |
| --- | --- | --- | --- | --- | --- | --- | --- | --- | --- | --- | --- | --- | --- | --- |
| CC[C@@]1(O)C(=O)OCc2c1cc1n(c2=O)Cc2c-1nc1cc3c(cc1c2-c1ccc(C)c(F)c1)OCO3 [FL77-28, 7-(3-Fluoro-4-methylphenyl)-10,11-methylenedioxy-20(S)-CPT] | 2.32 ± 0.04 × 10^−6 cm/s | 1.14 | 65 ± 1 | not substrates of P-gp or BCRP | not substrates of P-gp | no significant effect | above 90% | 45 ± 14 | 48 ± 7 | 22 ± 7 |  |  |  |  |
| CC[C@@]1(O)C(=O)OCc2c1cc1n(c2=O)Cc2c-1nc1cc3c(cc1c2-c1ccc(F)c(C)c1)OCO3 [FL77-29, 7-(4-Fluoro-3-methylphenyl)-10,11-methylenedioxy-20(S)-CPT] | 2.48 ± 0.18 × 10^−6 cm/s | 1.40 | 34 ± 2 | not a substrate for BCRP | mediated by P-gp | incubation at 4 °C significantly increased the cellar uptake | above 90% | 25 ± 3 | 28 ± 4 | 36 ± 4 |  |  |  |  |
| CC[C@@]1(O)C(=O)OCc2c1cc1n(c2=O)Cc2cc3cc4c(cc3nc2-1)OCO4 [FL118, 10,11-methylenedioxy-20(S)-CPT, reference compound] |  |  | 104 ± 2 | not substrates of P-gp or BCRP | not substrates of P-gp | no significant effect |  | 50 ± 4 | 43 ± 4 | 40 ± 3 | not being a substrate for P-gp | not being a substrate for P-gp or BCRP | above 90% |  |
| Lucifer yellow [LY, reference compound] |  |  |  |  |  |  |  |  |  |  |  |  |  | 0.57 ± 0.14 × 10^−6 cm/s |
